System: patients suffering from facial neuralgia
Experiment: Earlier treatments of the same patients (not relieved by)
Type: in vivo, human
[1] = Patient 3, post-zooster facial neuralgia

Compound	relief of pain by earlier treatment (Patient 2, facial neuralgia)	relief of pain by earlier treatment [1]	relief of pain by earlier treatment (Patient 1, trigeminal neuralgia)
CN(C)CCC=C1c2ccccc2CCc2ccccc21 [amitriptyline]	No relieved	No relieved	
CNCC[C@H](Oc1cccc2ccccc12)c1cccs1 [duloxetine]	No relieved		
NCC1(CC(=O)O)CCCCC1 [gabapentin]	No relieved		
CNC1(c2ccccc2Cl)CCCCC1=O (stereo not drawn) [ketamine]			No relieved
CCC(=O)C(CC(C)N(C)C)(c1ccccc1)c1ccccc1 (stereo not drawn) [methadone]	No relieved		
CC(C)C[C@H](CN)CC(=O)O [pregabalin]	No relieved	No relieved	
COc1cccc(C2(O)CCCCC2CN(C)C)c1 (stereo not drawn) [tramadol]		No relieved	

Reference: patent US20230058954A1, “APREPITANT FOR USE IN THE TOPICAL TREATMENT OF FACIAL NEURALGIA” (ASSISTANCE PUBLIQUE - HOPITAUX DE PARIS, priority 2020, published 2023)
